Results from US7897723B2, “ErbB receptor-derived peptide fragments” (Københavns Universitet, priority 2006, dated 2011).

How the values were obtained:
L929 cells [1] = assay: Cell proliferation (BrdU incorporation); type: cell-based
Description: 2000 L929 cells (ECACC no: 85011425) per well were seeded in a 96 well plate in full medium (containing 10% foetal calf serum) or starvation medium (serum-free). Peptides, ErbB1 kinase inhibitor PD153035 (Calbiochem), and EGF (Sigma-Aldrich) were added immediately after seeding of the cells (for experiments done in full serum) or after 8 hours of incubation (for experiments done in starvation medium) in the concentrations indicated in figures. Cells were grown for 6 hours, then 10 μM bromodeoxyuridine (BrdU) was added, and cells were grown for additional 18 hours. Then, BrdU incorporation in the cells was assayed using the Biotrak ELISA System, version 2 from Amersham Biosciences Europe GmbH (Buckinghamshire, UK) following the manufacturer's protocol.

L929 cells [2] = assay: Cell motility assay (time-lapse video recording); type: cell-based
Description: Subconfluent L929 cells were infected with Ad5.CMV-GFP virus according to the manufacturer instruction (Clontech). 24 h after transfection, cells were seeded at a density of 4×10^3 cells/cm^2 and grown for 24 h. Cells were then treated with the indicated concentration of peptide and EGF, and cell positions were recorded every 15 min at 25 fixed positions in each culture for 4 hours using automatic time-lapse video recording. The workstation employed comprised an Eclipse TE300 inverted microscope (Nikon, Japan) equipped with a heated, movable, computer controlled microscope stage. Recordings were performed using the PRIGRA software (developed at the Protein Laboratory, Copenhagen, Denmark).
Analysis of individual cell motility was performed using an automatic procedure for single cell motility evaluation. Briefly, automatic marking of cell positions in consecutive video frames was used for determination of the migration tracks of the cells during the whole recording period. The obtained cell coordinate data were used for the calculation of motility parameters by means of the ‘complex overlapping’ method. Briefly, the mean squared cell displacement, ? d^2 ? , was calculated as the Euclidean distance between two points corresponding to the initial and final position of the cell. The rate of diffusion, R, was calculated by fitting the curve of ? d^2 ? plotted against time to the equation ? d^2(ti) ? =R(τ−P(1−e^(−τ/P))), • where ti is the time interval of interest, τ is the time interval between observations, i.e. 15 min, and P is the persistence time in direction (28). The mean cell speed, Sτ, was calculated as the mean cell displacement taking place between discrete observations ( ? dτ ? ) divided by the time interval between discrete observations (τ), according to the equation:
[formula] • The mean cell-path-length, ? L ? , for a sample of a population of cells at a given time of observation, was calculated as:
[formula] • The locomotive index, LI, was calculated as the ratio of the mean cell displacement and the mean cell-path-length:
[formula] LI was used as a measure of the directional persistence of the cells.

HN5 cells = assay: Cell viability / cell growth (MTS staining); type: cell-based, human; conditions: HN5 cells
Description: 2000 HN5 cells per well were seeded in a 96 well plate in full medium (containing 10% fetal calf serum) or starvation medium (serum-free). After 12 hours of incubation, peptides or ErbB1 kinase inhibitor PD153035 (Calbiochem) and/or EGF (Sigma-Aldrich) were added in the concentrations indicated in figures. Cells were grown for 72 hours, then 20 μl MTS One Solution Reagent (Promega, Madison, Wis., USA) were added per 100 μl culture medium in each well, and the plates were incubated for 1-2 hours at 37° C., followed by absorbance measurements at 490 nm.

ErbB1 [3] = target: T1, ErbB1 (Homo sapiens, UniProt P00533); assay: ErbB receptor phosphorylation, NR6 wtEGFR cells; type: cell-based; design: expressed in transfected cells; host or cells: NR6 fibroblastoid cells (NR6 wtEGFR); conditions: 10 ng/ml EGF for 10 min, immunoblotting (FIG. 7)
Description: The cells employed for this assay were NR6 wtEGFR cells, which are fibroblastoid cells stably transfected with ErbB1, and human head and neck tumor-derived HN5 cell. Confluent NR6 wtEGFR or HN5 cells were treated with peptide in the indicated concentrations for 30 min, then stimulated with 10 ng/ml EGF (Sigma-Aldrich, St. Louis, Mo., USA) for 10 min. Cells were lysed in lysis buffer (1% (v/v) Triton X-100, 150 mM NaCl, 10 mM Tris pH 7.4, 1 mM EDTA, 1 mM EGTA, 0.5% (v/v) NP-40, phosphatase inhibitors (Phosphatase Inhibitor Cocktail Set II from Calbiochem, La Jolla, Calif., USA) and protease inhibitors (Complete™ Protease Inhibitor Cocktail from Boehringer Mannheim Biochemica, Mannheim, Germany)), and cleared lysate samples containing equal amounts of total protein (as determined by a bicinchoninic acid assay (Pierce, Rockford, Ill., USA)) were subjected in duplicates to 4-12% SDS-PAGE and immunoblotting. […] The intensity of bands was quantified using densitometric analysis employing the software package GeneTools (Syngene, Cambridge, UK).
NR6 wtEGFR cells (a fibroblastoid cell line stably transfected with ErbB1) were treated with peptide in the indicated concentrations for […], then stimulated with 10 ng/ml EGF for 10 min. […] The intensity of bands was quantified using densitometric analysis employing the software package GeneTools (Syngene, Cambridge, UK).

ErbB1 [4] = target: T1, ErbB1; assay: ErbB receptor phosphorylation, HN5 cells; type: cell-based; design: the ErbB1 overexpressing human head and neck cancer cell line HN5; endogenous in cells; host or cells: HN5 human head and neck cancer cells; conditions: 100 μM peptide for 30 min, 10 ng/ml EGF for 10 min (FIG. 8)
Description: The cells employed for this assay were NR6 wtEGFR cells, which are fibroblastoid cells stably transfected with ErbB1, and human head and neck tumor-derived HN5 cell. Confluent NR6 wtEGFR or HN5 cells were treated with peptide in the indicated concentrations for 30 min, then stimulated with 10 ng/ml EGF (Sigma-Aldrich, St. Louis, Mo., USA) for 10 min. Cells were lysed in lysis buffer (1% (v/v) Triton X-100, 150 mM NaCl, 10 mM Tris pH 7.4, 1 mM EDTA, 1 mM EGTA, 0.5% (v/v) NP-40, phosphatase inhibitors (Phosphatase Inhibitor Cocktail Set II from Calbiochem, La Jolla, Calif., USA) and protease inhibitors (Complete™ Protease Inhibitor Cocktail from Boehringer Mannheim Biochemica, Mannheim, Germany)), and cleared lysate samples containing equal amounts of total protein (as determined by a bicinchoninic acid assay (Pierce, Rockford, Ill., USA)) were subjected in duplicates to 4-12% SDS-PAGE and immunoblotting. One membrane was probed with anti-phospho-EGFR (phosphotyrosine 1068) antibody (Cell Signaling Technology, Danvers, Mass., USA), the other with anti-EGFR antibody (Cell Signaling Technology). Detection was carried out using horseradish peroxidase (HRP)-conjugated secondary antibodies (DAKO, Denmark) and enhanced chemiluminiscence (Pierce). The intensity of bands was quantified using densitometric analysis employing the software package GeneTools (Syngene, Cambridge, UK).

Sequence: LVYNKLTFQLEPNPHTK (Inherbin 3 peptide) [Inherbin3]
- effect on EGF-induced cell proliferation (L929 cells [1]; L929 cells, full medium, BrdU incorporation (FIG. 2, FIG. 3)): able to inhibit EGF-induced cell proliferation significantly
- inhibition of the EGF-induced effects (L929 cells [1]; summary for cell proliferation, cell motility and ErbB1 phosphorylation in cells with a lower ErbB1 expression level): ~100%
- effect on mean cell speed (L929 cells [2]; L929 cells (FIG. 5C)): did not significantly affect the mean cell speed
- effect on locomotive index, LI (L929 cells [2]; L929 cells (FIG. 5D)): reflected the changes seen in rate of diffusion
- effect on rate of diffusion, R (L929 cells [2]; L929 cells, absence of EGF, peptide dose 10 μM (FIG. 5B)): stimulated the rate of diffusion to the level of the EGF-induced response
- effect on EGF-induced increase in rate of diffusion, R (L929 cells [2]; L929 cells, with EGF (FIG. 5B)): significantly inhibited
- effect on EGF-induced increase in rate of diffusion, R (L929 cells [2]; L929 cells, with EGF, peptide dose 40 μM (FIG. 5B)): completely blocked the EGF-induced increase in rate of diffusion
- effect on serum-induced cell growth (HN5 cells; full medium containing 10% serum (FIG. 6B)): inhibited serum-induced cell growth
- inhibition of the EGF-induced increase in cell growth (HN5 cells; starvation medium, EGF-stimulated, 3 days, MTS (FIG. 6A)): ~35%
- effect on basal cell growth (HN5 cells; starvation medium, without EGF-stimulation (FIG. 6A)): no effect on the basal cell growth
- effect on EGF-induced ErbB1 phosphorylation (ErbB1 [3]): inhibited EGF-induced ErbB1 phosphorylation significantly
- effect on EGF-induced ErbB1 phosphorylation (ErbB1 [4]): significantly inhibited EGF-induced ErbB1 phosphorylation
